One may read the Ki as a dissociation constant, usually derived from enzyme kinetics or from competition with a known ligand. The term IC50 denotes the concentration at which inhibition is half-maximal.

Like-named read-outs stand apart in the source and are kept apart here.

Results on 18 compounds are retold here after patent US20220024945A1, “THERAPEUTIC COMPOUNDS AND COMPOSITIONS, AND METHODS OF USE THEREOF” (Genentech, Inc., priority 2017, published 2022).

Assay [1] deals with isolated recombinant JAK2 kinase domain (Homo sapiens, UniProt O60674). In words: JAK enzyme assay (Caliper LabChip), JAK2 kinase domain. As to conditions: ATP 25 μM, 0.2 nM JAK2, Morrison tight binding model.
Chain of isolated recombinant JAK2 kinase domain (O60674 849-1124 limits assumed): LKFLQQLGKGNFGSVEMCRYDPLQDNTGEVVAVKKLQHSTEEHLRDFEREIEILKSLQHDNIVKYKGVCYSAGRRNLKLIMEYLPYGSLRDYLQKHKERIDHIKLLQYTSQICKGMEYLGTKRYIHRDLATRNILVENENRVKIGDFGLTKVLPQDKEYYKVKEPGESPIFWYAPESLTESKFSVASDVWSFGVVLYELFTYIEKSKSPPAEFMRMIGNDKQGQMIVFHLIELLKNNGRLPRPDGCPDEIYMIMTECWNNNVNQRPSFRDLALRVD
Protocol: JAK Enzyme Assays were Carried Out as Follows:
The activity of the isolated recombinant JAK1 and JAK2 kinase domain was measured by monitoring phosphorylation of a peptide derived from JAK3 ([sequence] fluorescently labeled on the N-terminus with 5-carboxyfluorescein) using the Caliper LabChip® technology (Caliper Life Sciences, Hopkinton, Mass.). […] Reactions were incubated at 22° C. in 384-well polypropylene microtiter plates for 30 minutes and then stopped by addition of 25 μL of an EDTA containing solution (100 mM HEPES buffer (pH 7.2), 0.015% Brij-35, 150 mM EDTA), resulting in a final EDTA concentration of 50 mM. After termination of the kinase reaction, the proportion of phosphorylated product was determined as a fraction of total peptide substrate using the Caliper LabChip® 3000 according to the manufacturer's specifications.
In assay [2] the test system is JAK1-dependent STAT6 phosphorylation downstream of IL-13 stimulation, BEAS-2B cells. In words: JAK1 pathway assay in cell lines: P-STAT6 in BEAS-2B cells + IL13. The format is cell-based. As to conditions: BEAS-2B human bronchial epithelial cells, 1 hr compound preincubation, read-out: P-STAT6 BEAS2B + IL13 IC50. On the procedure: JAK1 Pathway Assay in Cell Lines was Carried Out as Follows:
Inhibitor potency (EC50) was determined in cell-based assays designed to measure JAK1 dependent STAT phosphorylation. As noted above, inhibition of IL-4, IL-13, and IL-9 signaling by blocking the Jak/Stat signaling pathway can alleviate asthmatic symptoms in pre-clinical lung inflammation models (Mathew et al., 2001, J Exp Med 193(9): 1087-1096; Kudlacz et. al., 2008, Eur J. Pharmacol 582(1-3): 154-161).
In one assay approach, TF-1 human erythroleukemia cells obtained from the American Type Culture Collection (ATCC; Manassas, Va.) were used to measure JAK1-dependent STAT6 phosphorylation downstream of IL-13 stimulation. Prior to use in the assays, TF-1 cells were starved of GM-CSF overnight in OptiMEM medium (Life Technologies, Grand Island, N.Y.) supplemented with 0.5% charcoal/dextran stripped fetal bovine serum (FBS), 0.1 mM non-essential amino acids (NEAA), and 1 mM sodium pyruvate. The assays were run in 384-well plates in serum-free OptiMEM medium using 300,000 cells per well. In a second assay approach, BEAS-2B human bronchial epithelial cells obtained from ATCC were plated at 100,000 cells per well of a 96-well plate one day prior to the experiment. The BEAS-2B assay was run in complete growth medium (bronchial epithelial basal medium plus bulletkit; Lonza; Basel, Switzerland).
Test compounds were serially diluted 1:2 in DMSO and then diluted 1:50 in medium just before use. Diluted compounds were added to the cells, for a final DMSO concentration of 0.2%, and incubated for 30 m (for the TF-1 assay) or 1 hr (for the BEAS-2B assay) at 37° C. Then, cells were stimulated with human recombinant cytokine at their respective EC90 concentrations, as previously determined for each individual lot. Cells were stimulated with […] (R&D Systems, Minneapolis, Minn.) for 15 m/at 37° C. The TF-1 cell reactions were stopped by the direct addition of 10× lysis buffer (Cell Signaling Technologies, Danvers, Mass.), whereas the BEAS-2B cell incubations were halted by the removal of medium and addition of 1× lysis buffer. The resultant samples were frozen in the plates at −80° C. Compound mediated inhibition of STAT6 phosphorylation was measured in the cell lysates using MesoScale Discovery (MSD) technology (Gaithersburg, Md.). EC50 values were determined as the concentration of compound required for 50% inhibition of STAT phosphorylation relative to that measured for the DMSO control.

Assay [3] concerns the target isolated recombinant JAK1 kinase domain (Homo sapiens, UniProt P23458). In words: JAK enzyme assay (Caliper LabChip), JAK1 kinase domain. It is filed as biochemical. As to conditions: ATP 25 μM; 1.5 nM JAK1; Morrison tight binding model.

Chain of isolated recombinant JAK1 kinase domain (P23458 875-1153 limits assumed): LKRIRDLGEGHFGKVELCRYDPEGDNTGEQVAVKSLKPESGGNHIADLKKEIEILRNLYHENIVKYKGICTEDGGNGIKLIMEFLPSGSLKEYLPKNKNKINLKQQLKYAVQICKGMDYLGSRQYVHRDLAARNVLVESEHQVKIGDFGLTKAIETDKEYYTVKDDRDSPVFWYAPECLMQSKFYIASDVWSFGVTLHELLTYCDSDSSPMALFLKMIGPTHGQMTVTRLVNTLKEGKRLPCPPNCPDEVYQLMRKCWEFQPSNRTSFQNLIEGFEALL

For the compound `CC(=O)N1CCC(Sc2ccc(OC(F)F)c(-c3n[nH]cc3NC(=O)c3cnn4cccnc34)c2)CC1` [Example 34, N-[3-[5-[(1-acetyl-4-piperidyl)sulfanyl]-2-(difluoromethoxy)phenyl]-1H-pyrazol-4-yl]pyrazolo[1,5-a]pyrimidine-3-carboxamide], the Ki in assay [1] was 0.39 nM; in assay [3], 1.02 nM. For the same compound, the IC50 in assay [2] (Homo sapiens, BEAS-2B, 1 h) is 251 nM.

As for `O=C(Nc1cn(CC(=O)N2CCC(N3CCOCC3)CC2)nc1-c1cc(SC(F)F)ccc1OC(F)F)c1cnn2cccnc12` [Example 42, N-[3-[2-(difluoromethoxy)-5-(difluoromethylsulfanyl)phenyl]-1-[2-(4-morpholino-1-piperidyl)-2-oxo-ethyl]pyrazol-4-yl]pyrazolo[1,5-a]pyrimidine-3-carboxamide], the values for the inhibitory constant (Ki) in assay [1] and in assay [3] were 0.72 nM and 0.34 nM, respectively. The IC50 in assay [2] (Homo sapiens, BEAS-2B, 1 h) was 23 nM.

With `COC(=O)N1CCN(CC2CCN(C(=O)Cn3cc(NC(=O)c4cnn5cccnc45)c(-c4cc(SC(CF)CF)ccc4OC(F)F)n3)CC2)CC1` [Example 18], the Ki amounted to 1.3 nM in assay [1] and 0.4 nM in assay [3]. Also, in assay [2] (Homo sapiens, BEAS-2B, 1 h), the IC50 stood at 33 nM.

Turning to `CSc1ccc(OC(F)F)c(-c2nn(CC(C)(C)O)cc2NC(=O)c2cnn3cccnc23)c1` [Example 19, N-[3-[2-(difluoromethoxy)-5-methylsulfanyl-phenyl]-1-(2-hydroxy-2-methyl-propyl)pyrazol-4-yl]pyrazolo[1,5-a]pyrimidine-3-carboxamide], the values for the inhibitory constant (Ki) in assay [1] and in assay [3] were 0.48 nM and 0.36 nM, respectively. Besides, the concentration for half-maximal inhibition (IC50) in assay [2] (Homo sapiens, BEAS-2B, 1 h) was 15 nM.

Turning to `CN(C1CCN(C(=O)Cn2cc(NC(=O)c3cnn4cccnc34)c(-c3cc(SC4CCOCC4)ccc3OC(F)F)n2)CC1)C1COC1` [Example 6, N-[3-[2-(difluoromethoxy)-5-tetrahydropyran-4-ylsulfanyl-phenyl]-1-[2-[44-[methyl(oxetan-3-yl)amino]-1-piperidyl]-2-oxo-ethyl]pyrazol-4-yl]pyrazolo[1,5-a]pyrimidine-3-carboxamide], the Ki in assay [1] was 2.93 nM; in assay [3] it was 0.97 nM. The half-maximal inhibitory concentration (IC50) in assay [2] (Homo sapiens, BEAS-2B, 1 h) worked out at 278 nM.

Regarding `CN(C)C(=O)Cn1cc(NC(=O)c2cnn3cccnc23)c(-c2cc(SC(F)F)ccc2OC(F)F)n1` [Example 33, N-[3-[2-(difluoromethoxy)-5-(difluoromethylsulfanyl)phenyl]-1-[2-(dimethylamino)-2-oxo-ethyl]pyrazol-4-yl]pyrazolo[1,5-a]pyrimidine-3-carboxamide], the Ki is 0.52 nM in assay [1] and 0.21 nM in assay [3]. Besides, the 50% inhibitory concentration (IC50) in assay [2] (Homo sapiens, BEAS-2B, 1 h) was determined as 10 nM.

Take `CN(C)C(=O)Cn1cc(NC(=O)c2cnn3cccnc23)c(-c2cc(S(C)(=O)=O)ccc2OC(F)F)n1` [Example 49, N-(3-(2-(difluoromethoxy)-5-(methylsulfonyl)phenyl)-1-(2-(dimethylamino)-2-oxoethyl)-1H-pyrazol-4-yl)pyrazolo[1,5-a]pyrimidine-3-carboxamide]: the values for the Ki in assay [1] and in assay [3] were 0.79 nM and 0.45 nM, respectively. The IC50 in assay [2] (Homo sapiens, BEAS-2B, 1 h) is 214 nM.

As to `CNC(=O)Cn1cc(NC(=O)c2cnn3cccnc23)c(-c2cc(SC(F)F)ccc2OC(F)F)n1` [Example 32, N-[3-[2-(difluoromethoxy)-5-(difluoromethylsulfanyl)phenyl]-1-[2-(methylamino)-2-oxo-ethyl]pyrazol-4-yl]pyrazolo[1,5-a]pyrimidine-3-carboxamide], the Ki in assay [1] worked out at 0.51 nM; in assay [3], 0.35 nM. The half-inhibitory concentration (IC50) in assay [2] (Homo sapiens, BEAS-2B, 1 h) was determined as 14 nM.

Regarding `O=C(Nc1c[nH]nc1-c1cc(SC(F)F)ccc1OC(F)F)c1cnn2cccnc12` [Example 30, N-[3-[2-(difluoromethoxy)-5-(difluoromethylsulfanyl)phenyl]-1H-pyrazol-4-yl]pyrazolo[1,5-a]pyrimidine-3-carboxamide], the inhibition constant Ki in assay [1] turned out to be 0.09 nM; in assay [3] it was 0.16 nM. The concentration for half-maximal inhibition (IC50) in assay [2] (Homo sapiens, BEAS-2B, 1 h) was 5 nM.

As for `O=C(Nc1c[nH]nc1-c1cc(SC2CCC2)ccc1OC(F)F)c1cnn2cccnc12` [Example 9, N-[3-[5-cyclobutylsulfanyl-2-(difluoromethoxy)phenyl]-1H-pyrazol-4-yl]pyrazolo[1,5-a]pyrimidine-3-carboxamide], the inhibition constant (Ki) in assay [1] is 0.14 nM; in assay [3] it was 0.23 nM. Also, in assay [2] (Homo sapiens, BEAS-2B, 1 h), the IC50 was 7 nM.

Consider `CN(C)C(=O)Cn1cc(NC(=O)c2cnn3cccnc23)c(-c2cc(S(=O)(=O)C(F)F)ccc2OC(F)F)n1` [Example 50, N-(3-(2-(difluoromethoxy)-5-((difluoromethyl)sulfonyl)phenyl)-1-(2-(dimethylamino)-2-oxoethyl)-1H-pyrazol-4-yl)pyrazolo[1,5-a]pyrimidine-3-carboxamide], for which the Ki in assay [1] turned out to be 0.56 nM; in assay [3] it was 0.3 nM. The IC50 in assay [2] (Homo sapiens, BEAS-2B, 1 h) was found to be 38 nM.

Consider `COC(=O)CSc1ccc(OC(F)F)c(-c2n[nH]cc2NC(=O)c2cnn3cccnc23)c1` [Example 43, methyl 2-[4-(difluoromethoxy)-3-[4-(pyrazolo[1,5-a]pyrimidine-3-carbonylamino)-1H-pyrazol-3-yl]phenyl]sulfanylacetate], for which the results for the Ki in assay [1] and in assay [3] were 0.15 nM and 0.32 nM, respectively. In assay [2] (Homo sapiens, BEAS-2B, 1 h), the concentration for half-maximal inhibition (IC50) was found to be 37 nM.

`O=C(Nc1cn(Cc2cn(C3CCN([C@H]4CCOC4)CC3)nn2)nc1-c1cc(SC2COC2)ccc1OC(F)F)c1cnn2cccnc12` (stereo in doubt) [Example 20, N-[3-[2-(difluoromethoxy)-5-(oxetan-3-ylsulfanyl)phenyl]-1-[[1-[1-[rac-(3S)-tetrahydrofuran-3-yl]-4-piperidyl]triazol-4-yl]methyl]pyrazol-4-yl]pyrazolo[1,5-a]pyrimidine-3-carboxamide; formic acid]: the Ki in assay [1] worked out at 0.44 nM; in assay [3], 0.66 nM. Moreover, the IC50 in assay [2] (Homo sapiens, BEAS-2B, 1 h) came out at 67 nM.

Consider `O=C(Nc1c[nH]nc1-c1cc(SC2CCCNC2)ccc1OC(F)F)c1cnn2cccnc12` (single isomer, unassigned) [Example 37, N-[3-[2-(difluoromethoxy)-5-(3-piperidylsulfanyl)phenyl]-1H-pyrazol-4-yl]pyrazolo[1,5-a]pyrimidine-3-carboxamide], for which the inhibition constant Ki in assay [1] is 0.57 nM; in assay [3], 1.16 nM. In assay [2], the IC50 worked out at 222 nM.

For the compound `O=C(Nc1c[nH]nc1-c1cc(SC2CCOCC2)ccc1OC(F)F)c1cnn2cccnc12` [Example 1, N-[3-[2-(difluoromethoxy)-5-tetrahydropyran-4-ylsulfanyl-phenyl]-1H-pyrazol-4-yl]pyrazolo[1,5-a]pyrimidine-3-carboxamide], the values for the inhibitory constant (Ki) in assay [1] and in assay [3] were 0.15 nM and 0.4 nM, respectively. The IC50 in assay [2] (Homo sapiens, BEAS-2B, 1 h) was found to be 11 nM.

On to `CN1CCCC(Sc2ccc(OC(F)F)c(-c3n[nH]cc3NC(=O)c3cnn4cccnc34)c2)C1` (single isomer, unassigned) [Example 38, N-[3-[2-(difluoromethoxy)-5-[(1-methyl-3-piperidyl)sulfanyl]phenyl]-1H-pyrazol-4-yl]pyrazolo[1,5-a]pyrimidine-3-carboxamide], for which the inhibition constant Ki turned out to be 1.38 nM in assay [1] and 2.93 nM in assay [3]. Further, the IC50 in assay [2] (Homo sapiens, BEAS-2B, 1 h) was 56 nM.

On to `CNC(=O)Cn1cc(NC(=O)c2cnn3cccnc23)c(-c2cc(SC)ccc2OC(F)F)n1` [Example 45, N-[3-[2-(difluoromethoxy)-5-methylsulfanyl-phenyl]-1-[2-(methylamino)-2-oxo-ethyl]pyrazol-4-yl]pyrazolo[1,5-a]pyrimidine-3-carboxamide], for which the inhibitory constant (Ki) in assay [1] and in assay [3] was 0.21 nM throughout. Also, the 50% inhibitory concentration (IC50) in assay [2] (Homo sapiens, BEAS-2B, 1 h) was 8 nM.

In the case of `CN(C)C(=O)Cn1cc(NC(=O)c2cnn3cccnc23)c(-c2cc(SCC(F)(F)F)ccc2OC(F)F)n1` [Example 47, N-(3-(2-(difluoromethoxy)-5-((2,2,2-trifluoroethyl)thio)phenyl)-1-(2-(dimethylamino)-2-oxoethyl)-1H-pyrazol-4-yl)pyrazolo[1,5-a]pyrimidine-3-carboxamide], the results for the Ki in assay [1] and in assay [3] were 0.78 nM and 0.18 nM, respectively. In assay [2] (Homo sapiens, BEAS-2B, 1 h), the IC50 came to 15 nM.
